Test results from the supplement of paper PMC11061612.

Columns and labels:
Test in all cases: combination Emax (second highest fraction inhibited in the dose matrix, 72 h); higher = more inhibition; extreme values may be limits of the assay
[1] = system: AM-38 (Glioblastoma)
In short: (§1)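 After 24 hours at 37°C and 5% CO2 in 1536-well plates, cells in DMEM/F12 or RPMI plus 10% FBS received two-drug dose matrices for 72 hours. Viability came from CellTiter-Glo 2.0 luminescence and was scaled as inhibition, anchored at 0 by vehicle wells and at 1 by blank wells. Combination Emax is taken as the second-highest inhibition in the matrix, and Bliss excess as the observed combination effect less EA + EB − EA·EB, with EA and EB the single-agent effects.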

[2] = system: GAK (Melanoma)
In short: as §1

[3] = system: KP-4 (Pancreatic Carcinoma)
In short: as §1

[4] = system: LCLC-103H (Non-Small Cell Lung Carcinoma)
In short: as §1

[5] = system: MM1S (Plasma Cell Myeloma)
In short: as §1

[6] = system: MS-1 (Small Cell Lung Carcinoma)
In short: as §1

[7] = system: NAMALWA (Burkitt's Lymphoma)
In short: as §1

[8] = system: NB1 (Neuroblastoma)
In short: as §1

[9] = system: NCI-H2373 (Mesothelioma)
In short: as §1

[10] = system: NCI-H3118 (Head and Neck Carcinoma)
In short: as §1

[11] = system: NCI-H596 (Other Solid Carcinomas)
In short: as §1

[12] = system: PL4 (Pancreatic Carcinoma)
In short: as §1

[13] = system: RCC-JW (Kidney Carcinoma)
In short: as §1

[14] = system: Raji (Burkitt's Lymphoma)
In short: as §1

[15] = system: SCC-4 (Oral Cavity Carcinoma)
In short: as §1

[16] = system: SK-CO-1 (Colorectal Carcinoma)
In short: as §1

[17] = system: SNU-423 (Hepatocellular Carcinoma)
In short: as §1

[18] = system: SiHa (Cervical Carcinoma)
In short: as §1

[19] = system: T47D (Breast Carcinoma)
In short: as §1

[20] = system: T84 (Colorectal Carcinoma)
In short: as §1

Compound | combination Emax [1] | combination Emax [2] | combination Emax [3] | combination Emax [4] | combination Emax [5] | combination Emax [6] | combination Emax [7] | combination Emax [8] | combination Emax [9] | combination Emax [10] | combination Emax [11] | combination Emax [12] | combination Emax [13] | combination Emax [14] | combination Emax [15] | combination Emax [16] | combination Emax [17] | combination Emax [18] | combination Emax [19] | combination Emax [20]
Cc1nc(Nc2ncc(C(=O)Nc3c(C)cccc3Cl)s2)cc(N2CCN(CCO)CC2)n1 [Dasatinib] + CC(=O)Nc1cccc(-n2c(=O)n(C3CC3)c(=O)c3c(Nc4ccc(I)cc4F)n(C)c(=O)c(C)c32)c1 [Trametinib] (first compound max 2 µM, 7x7, partner max 1 µM) | 0.713 | 0.788 | 0.735 | 0.326 | 0.227 | 0.125 | 0.407 | 0.139 | 0.391 | 0.811 | 0.607 | 0.955 | 0.859 | 0.134 | 0.712 | 0.994 | 0.832 | 0.329 | 0.344 | 0.816
COc1cccc2c1C(=O)c1c(O)c3c(c(O)c1C2=O)C[C@@](O)(C(=O)CO)C[C@@H]3O[C@H]1C[C@H](N)[C@H](O)[C@H](C)O1 [Doxorubicin] + Cc1cc2ncnn2cc1Nc1ncc2c(n1)n(C1CCOCC1)c(=O)n2C [AZD7648] (first compound max 1 µM, 7x7, partner max 10 µM) | 0.826 | 0.803 | 0.76 | 0.85 | 0.922 | 0.905 | 0.976 | 0.89 | 0.95 | 0.758 | 0.295 | 0.535 | 0.75 | 0.96 | 0.303 | 0.77 | 0.713 | 0.571 | 0.64 | 0.163
COc1cc2ncnc(Nc3ccc(F)c(Cl)c3)c2cc1OCCCN1CCOCC1 [Gefitinib] + CC(C)n1c(=O)n(C)c2cnc3cc(F)c(-c4ccc(OCCCN5CCCCC5)nc4)cc3c21 [AZD1390] (first compound max 10 µM, 7x7, partner max 0.3 µM) | 0.123 | 0.226 | 0.121 | 0.195 | 0.217 | 0.273 | 0.214 | 0.0869 | 0.119 | 0.518 | 0.269 | 0.125 | 0.226 | 0.162 | 0.275 | 0.241 | 0.126 | 0.0755 | 0.147 | 0.227
CS(=O)(=O)CCNCc1ccc(-c2ccc3ncnc(Nc4ccc(OCc5cccc(F)c5)c(Cl)c4)c3c2)o1 [Lapatinib] + C[C@@H](Oc1cc(-c2cnn(C3CCNCC3)c2)cnc1N)c1c(Cl)ccc(F)c1Cl [Crizotinib] (first compound max 10 µM, 7x7, partner max 10 µM) | 0.91 | 0.75 | 0.761 | 0.624 | 0.962 | 0.941 | 0.942 | 0.965 | 0.559 | 0.928 | 0.902 | 0.884 | 0.976 | 0.76 | 0.913 | 0.94 | 0.952 | 0.252 | 0.525 | 0.856
CC(=O)c1c(C)c2cnc(Nc3ccc(N4CCNCC4)cn3)nc2n(C2CCCC2)c1=O [Palbociclib] + CC1(C)CCC(CN2CCN(c3ccc(C(=O)NS(=O)(=O)c4ccc(NCC5CCOCC5)c([N+](=O)[O-])c4)c(Oc4cnc5[nH]ccc5c4)c3)CC2)=C(c2ccc(Cl)cc2)C1 [Venetoclax] (first compound max 10 µM, 7x7, partner max 1 µM) | 0.328 | 0.205 | 0.383 | 0.251 | 0.308 | 0.303 | 0.537 | 0.345 | 0.223 | 0.318 | 0.134 | 0.184 | 0.215 | 0.436 | 0.0364 | 0.43 | 0.179 | 0.123 | 0.237 | 0.079
CC(=O)c1c(C)c2cnc(Nc3ccc(N4CCNCC4)cn3)nc2n(C2CCCC2)c1=O [Palbociclib] + Cc1c2c(nn1C)CSCc1cc(n(C)n1)CSc1cc(c3ccccc3c1)OCCCc1c(C(=O)O)n(C)c3c-2c(Cl)ccc13 [AZD5991] (first compound max 10 µM, 7x7, partner max 1 µM) | 0.405 | 0.369 | 0.412 | 0.329 | 0.26 | 0.609 | 0.956 | 0.529 | 0.328 | 0.426 | 0.349 | 0.263 | 0.255 | 0.704 | 0.202 | 0.455 | 0.315 | 0.0939 | 0.413 | 0.119
CC(=O)c1c(C)c2cnc(Nc3ccc(N4CCNCC4)cn3)nc2n(C2CCCC2)c1=O [Palbociclib] + Cn1cnc2c(F)c(Nc3ccc(Br)cc3Cl)c(C(=O)NOCCO)cc21 [Selumetinib] (first compound max 10 µM, 7x7, partner max 10 µM) | 0.568 | 0.697 | 0.509 | 0.248 | 0.253 | 0.416 | 0.595 | 0.376 | 0.354 | 0.603 | 0.306 | 0.523 | 0.239 | 0.453 | 0.377 | 0.858 | 0.241 | 0.16 | 0.265 | 0.33
COc1cccc(OCCCN)c1-c1cc(Nc2cnc(C#N)cn2)n[nH]1 [Prexasertib] + C=CCn1c(=O)c2cnc(Nc3ccc(N4CCN(C)CC4)cc3)nc2n1-c1cccc(C(C)(C)O)n1 [AZD1775] (first compound max 1 µM, partner max 1 µM) | 0.857 | 0.783 | 0.8 | 0.854 | 0.963 | 1 | 0.989 | 0.906 | 0.497 | 0.906 | 0.65 | 0.852 | 0.703 | 0.977 | 0.665 | 0.775 | 0.878 | 0.487 | 0.704 | 0.861
COc1cccc(OCCCN)c1-c1cc(Nc2cnc(C#N)cn2)n[nH]1 [Prexasertib] + CCc1c2c(nc3ccc(O)cc13)-c1cc3c(c(=O)n1C2)COC(=O)[C@]3(O)CC [SN-38] (first compound max 1 µM, 7x7, partner max 0.3 µM) | 0.891 | 0.641 | 0.9 | 0.932 | 1 | 0.987 | 0.986 | 0.912 | 0.642 | 0.872 | 0.735 | 0.877 | 0.637 | 0.983 | 0.917 | 0.826 | 0.779 | 0.578 | 0.784 | 0.866
COc1cccc(OCCCN)c1-c1cc(Nc2cnc(C#N)cn2)n[nH]1 [Prexasertib] + CN(C)CCCOc1ccc(-c2ccc3ncc4c(c3c2)n(C2CCOCC2)c(=O)n4C)cn1 [AZD0156] (first compound max 1 µM, 7x7, partner max 1 µM) | 0.837 | 0.718 | 0.434 | 0.718 | 0.847 | 0.983 | 0.991 | 0.911 | 0.423 | 0.858 | 0.414 | 0.806 | 0.366 | 0.959 | 0.63 | 0.695 | 0.713 | 0.293 | 0.426 | 0.815
COc1cccc(OCCCN)c1-c1cc(Nc2cnc(C#N)cn2)n[nH]1 [Prexasertib] + C[C@@H]1COCCN1C2=NC(=NC(=C2)C3(CC3)[S@](=N)(=O)C)C4=C5C=CNC5=NC=C4 [AZD6738] (first compound max 1 µM, 7x7, partner max 10 µM) | 0.847 | 0.753 | 0.536 | 0.738 | 0.877 | 0.971 | 0.986 | 0.773 | 0.644 | 0.816 | 0.487 | 0.809 | 0.589 | 0.956 | 0.676 | 0.656 | 0.695 | 0.445 | 0.374 | 0.815
COc1cccc(OCCCN)c1-c1cc(Nc2cnc(C#N)cn2)n[nH]1 [Prexasertib] + Cc1cc2ncnn2cc1Nc1ncc2c(n1)n(C1CCOCC1)c(=O)n2C [AZD7648] (first compound max 1 µM, 7x7, partner max 10 µM) | 0.845 | 0.708 | 0.429 | 0.725 | 0.858 | 0.971 | 0.994 | 0.78 | 0.531 | 0.819 | 0.438 | 0.836 | 0.501 | 0.97 | 0.609 | 0.593 | 0.735 | 0.386 | 0.512 | 0.785
COc1cccc(OCCCN)c1-c1cc(Nc2cnc(C#N)cn2)n[nH]1 [Prexasertib] + O=C(c1cc(Cc2n[nH]c(=O)c3ccccc23)ccc1F)N1CCN(C(=O)C2CC2)CC1 [Olaparib] (first compound max 1 µM, 7x7, partner max 10 µM) | 0.847 | 0.668 | 0.641 | 0.78 | 0.931 | 0.896 | 0.983 | 0.561 | 0.378 | 0.837 | 0.642 | 0.812 | 0.319 | 0.982 | 0.588 | 0.643 | 0.77 | 0.404 | 0.479 | 0.826
